# Experimental data from patent publication US10988477B2 (Merck Patent GmbH, priority 2018, dated 2021).
# Biological target: GCN2 kinase (Homo sapiens, UniProt Q9P2K8)
# Test: GCN2 enzyme inhibition assay (Transcreener ADP2 fluorescence polarization)
# Type: biochemical
# Settings: compounds of Formula II; 280 μM ATP, 4 nM GCN2 kinase
# Summary of the method: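 FP detection of ADP (antibody plus Alexa633 tracer) after a 1 h, 25 °C kinase reaction. Enzyme 4 nM, ATP 280 μM, (RS)7 peptide 200 μM, Tris pH 7.5 buffer with MgCl2 and DTT. Percent inhibition fitted by non-linear tight-binding algorithm for IC50 and Ki(app).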
# Sequence of GCN2 kinase (Q9P2K8 whole entry): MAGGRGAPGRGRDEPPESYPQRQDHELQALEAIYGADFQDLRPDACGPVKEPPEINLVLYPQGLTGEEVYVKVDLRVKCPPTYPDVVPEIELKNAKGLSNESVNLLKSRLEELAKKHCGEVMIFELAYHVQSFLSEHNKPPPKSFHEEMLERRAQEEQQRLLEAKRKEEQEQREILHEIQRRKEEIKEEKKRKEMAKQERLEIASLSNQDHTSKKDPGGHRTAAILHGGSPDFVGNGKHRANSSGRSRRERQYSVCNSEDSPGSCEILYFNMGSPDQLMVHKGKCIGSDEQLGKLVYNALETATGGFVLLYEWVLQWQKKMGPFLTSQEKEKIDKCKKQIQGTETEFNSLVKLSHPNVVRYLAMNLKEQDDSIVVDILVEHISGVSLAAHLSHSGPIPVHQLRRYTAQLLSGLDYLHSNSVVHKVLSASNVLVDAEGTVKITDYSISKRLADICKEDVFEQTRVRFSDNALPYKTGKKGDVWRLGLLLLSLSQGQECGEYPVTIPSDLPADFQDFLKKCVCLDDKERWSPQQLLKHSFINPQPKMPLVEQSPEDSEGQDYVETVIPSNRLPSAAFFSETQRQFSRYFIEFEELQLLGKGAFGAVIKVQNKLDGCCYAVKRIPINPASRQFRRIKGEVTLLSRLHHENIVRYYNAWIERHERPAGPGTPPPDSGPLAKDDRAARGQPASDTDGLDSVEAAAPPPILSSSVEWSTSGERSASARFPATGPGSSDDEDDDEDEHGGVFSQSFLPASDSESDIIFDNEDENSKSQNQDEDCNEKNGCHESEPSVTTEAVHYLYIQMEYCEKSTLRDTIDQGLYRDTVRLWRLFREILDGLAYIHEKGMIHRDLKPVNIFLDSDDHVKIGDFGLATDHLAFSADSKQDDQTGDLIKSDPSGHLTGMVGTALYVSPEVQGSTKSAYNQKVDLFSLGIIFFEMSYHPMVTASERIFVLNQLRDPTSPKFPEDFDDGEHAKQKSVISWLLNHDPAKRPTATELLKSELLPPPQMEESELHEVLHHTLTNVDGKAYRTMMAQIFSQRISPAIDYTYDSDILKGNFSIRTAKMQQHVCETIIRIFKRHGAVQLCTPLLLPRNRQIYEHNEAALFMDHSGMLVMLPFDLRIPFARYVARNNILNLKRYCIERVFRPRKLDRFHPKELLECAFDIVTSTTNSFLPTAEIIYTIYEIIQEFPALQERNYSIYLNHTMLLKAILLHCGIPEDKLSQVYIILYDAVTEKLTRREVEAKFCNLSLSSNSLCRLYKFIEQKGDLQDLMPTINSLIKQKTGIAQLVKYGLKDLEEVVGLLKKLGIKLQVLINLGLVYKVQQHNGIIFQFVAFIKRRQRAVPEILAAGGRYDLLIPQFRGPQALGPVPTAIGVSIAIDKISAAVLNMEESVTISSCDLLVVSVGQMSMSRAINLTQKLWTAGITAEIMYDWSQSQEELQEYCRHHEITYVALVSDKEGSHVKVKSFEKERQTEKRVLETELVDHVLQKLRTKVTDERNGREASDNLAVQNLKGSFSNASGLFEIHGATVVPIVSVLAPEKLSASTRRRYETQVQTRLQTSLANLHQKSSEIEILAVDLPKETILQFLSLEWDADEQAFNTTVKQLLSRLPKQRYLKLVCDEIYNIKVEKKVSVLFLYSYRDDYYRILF
row,SMILES,Ki [µM]
1,"CCS(C)(=O)=NC1CC(C)CN(c2cc(-c3cnc4ccc(C(F)F)nn34)ncn2)C1 (stereo not shown) [II-635, ((1-(6-(6-(Difluoromethyl)imidazo[1,2-b]pyridazin-3-yl)pyrimidin-4-yl)-5-methylpiperidin-3-yl)imino)(ethyl)(methyl)-λ^6-sulfanone]",0.01 to 1
2,"CC1CC(N=S2(=O)CCCC2)CN(c2cc(-c3cnc4ccc(C(F)F)nn34)ncn2)C1 (stereo not shown) [II-649, 1-((1-(6-(6-(Difluoromethyl)imidazo[1,2-b]pyridazin-3-yl)pyrimidin-4-yl)-5-methylpiperidin-3-yl)imino)tetrahydro-1H-1-λ^6-thiophene 1-oxide]",0.01 to 1
3,"CS(C)(=O)=NC1CC(C(F)(F)F)CN(c2cc(-c3cnc4ccc(C(F)F)nn34)ncn2)C1 (stereo not shown) [II-654, ((1-(6-(6-(Difluoromethyl)imidazo[1,2-b]pyridazin-3-yl)pyrimidin-4-yl)-5-(trifluoromethyl)piperidin-3-yl)imino)dimethyl-λ^6-sulfanone]",0.01 to 1
4,"CC1CC(N=S(C)(C)=O)CN(c2cc(-c3cnc4ccc(C(F)F)nn34)ccn2)C1 (stereo not shown) [II-691, ((1-(4-(6-(Difluoromethyl)imidazo[1,2-b]pyridazin-3-yl)pyridin-2-yl)-5-methylpiperidin-3-yl)imino)dimethyl-λ^6-sulfanone]",0.01 to 1
5,"CS(C)(=O)=NC1CC(C(F)(F)F)CN(c2cc(-c3cnc4ccc(C(F)F)nn34)ncn2)C1 (stereo not shown) [II-694, ((1-(6-(6-(Difluoromethyl)imidazo[1,2-b]pyridazin-3-yl)pyrimidin-4-yl)-5-(trifluoromethyl)piperidin-3-yl)imino)dimethyl-λ^6-sulfanone]",0.01 to 1
6,"CC1CCC(N=S(C)(C)=O)CN1c1cc(-c2cnc3ccc(C(F)F)nn23)ncn1 (stereo not shown) [II-697, [1-[6-[6-(Difluoromethyl)imidazo[1,2-b]pyridazin-3-yl]pyrimidin-4-yl]-6-methyl-3-piperidyl]imino-dimethyl-λ^6-sulfanone]",> 1
7,"CC1CC(N=S(C)(C)=O)CN(c2cc(-c3cnc4ccc(C#N)nn34)ncn2)C1 (stereo not shown) [II-702, 3-(6-(3-((Dimethyl(oxo)-λ^6-sulfanylidene)amino)-5-methylpiperidin-1-yl)pyrimidin-4-yl)imidazo[1,2-b]pyridazine-6-carbonitrile]",0.01 to 1
8,"FC(F)(F)c1ccc2ncc(-c3cc(-c4cnn(C5CCOCC5)c4)ncn3)n2n1 [II-708, 3-[6-(1-Tetrahydropyran-4-ylpyrazol-4-yl)pyrimidin-4-yl]-6-(trifluoromethyl)imidazo[1,2-b]pyridazine]",> 1

# Further lines, results first:
row,Ki [µM],SMILES
1,0.01 to 1,"OC1CCCC2C1NCCN2c1cc(-c2cnc3ccc(C(F)F)nn23)ncn1 (stereo not shown) [II-628, 1-[6-[6-(Difluoromethyl)imidazo[1,2-b]pyridazin-3-yl]pyrimidin-4-yl]-3,4,4a,5,6,7,8,8a-octahydro-2H-quinoxalin-5-ol]"
2,0.01 to 1,"CC1CCN(c2cc(-c3cnc4ccc(C(F)F)nn34)ncn2)CC1N=S(C)(C)=O (stereo not shown) [II-629, ((1-(6-(6-(Difluoromethyl)imidazo[1,2-b]pyridazin-3-yl)pyrimidin-4-yl)-4-methylpiperidin-3-yl)imino)dimethyl-λ^6-sulfanone]"
3,0.01 to 1,"CC1CC(N=S(C)(=O)C2CC2)CN(c2cc(-c3cnc4ccc(C(F)F)nn34)ncn2)C1 (stereo not shown) [II-634, Cyclopropyl((1-(6-(6-(difluoromethyl)imidazo[1,2-b]pyridazin-3-yl)pyrimidin-4-yl)-5-methylpiperidin-3-yl)imino)(methyl)-λ^6-sulfanone]"
4,< 0.01,"CCC1CC(N=S(C)(C)=O)CN(c2cc(-c3cnc4ccc(C(F)F)nn34)ncn2)C1 (stereo not shown) [II-648, ((1-(6-(6-(Difluoromethyl)imidazo[1,2-b]pyridazin-3-yl)pyrimidin-4-yl)-5-ethylpiperidin-3-yl)imino)dimethyl-λ^6-sulfanone]"
5,< 0.01,"CC1CC(N=S(C)(C)=O)CN(c2cc(-c3cnc4ccc(C#N)nn34)ncn2)C1 (stereo not shown) [II-703, 3-(6-(3-((Dimethyl(oxo)-λ^6-sulfanylidene)amino)-5-methylpiperidin-1-yl)pyrimidin-4-yl)imidazo[1,2-b]pyridazine-6-carbonitrile]"
